One assay has as its target T1, mNpr1 (Mus musculus, UniProt P18293).
T1 construct: host or cells: HEK-293, transient co-transfection with pGS-40F
T1 sequence (P18293 29-1057): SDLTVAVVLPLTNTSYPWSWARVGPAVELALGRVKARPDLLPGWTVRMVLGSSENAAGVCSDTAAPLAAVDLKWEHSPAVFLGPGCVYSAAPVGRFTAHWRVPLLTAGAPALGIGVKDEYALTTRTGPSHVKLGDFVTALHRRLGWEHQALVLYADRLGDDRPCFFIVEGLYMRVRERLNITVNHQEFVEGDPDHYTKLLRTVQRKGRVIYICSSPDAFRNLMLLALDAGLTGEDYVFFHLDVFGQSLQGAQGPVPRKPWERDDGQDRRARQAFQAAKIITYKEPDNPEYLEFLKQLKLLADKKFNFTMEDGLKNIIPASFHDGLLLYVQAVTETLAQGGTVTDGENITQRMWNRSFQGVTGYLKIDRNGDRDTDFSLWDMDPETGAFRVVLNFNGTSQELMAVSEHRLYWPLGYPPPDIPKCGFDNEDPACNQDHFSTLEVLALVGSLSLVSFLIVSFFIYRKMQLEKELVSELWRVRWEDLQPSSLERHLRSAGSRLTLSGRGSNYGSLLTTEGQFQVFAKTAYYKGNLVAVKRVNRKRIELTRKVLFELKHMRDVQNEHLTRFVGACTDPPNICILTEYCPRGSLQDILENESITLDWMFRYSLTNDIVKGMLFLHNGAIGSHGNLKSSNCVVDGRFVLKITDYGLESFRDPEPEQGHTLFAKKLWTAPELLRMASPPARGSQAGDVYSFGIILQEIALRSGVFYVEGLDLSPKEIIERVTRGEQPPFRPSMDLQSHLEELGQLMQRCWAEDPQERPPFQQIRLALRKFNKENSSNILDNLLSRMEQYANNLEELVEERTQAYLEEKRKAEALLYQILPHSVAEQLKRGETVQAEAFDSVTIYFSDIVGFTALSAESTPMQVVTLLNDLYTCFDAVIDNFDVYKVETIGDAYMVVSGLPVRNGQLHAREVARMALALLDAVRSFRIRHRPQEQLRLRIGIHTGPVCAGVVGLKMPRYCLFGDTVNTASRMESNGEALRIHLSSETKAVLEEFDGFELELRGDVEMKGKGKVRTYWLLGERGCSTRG
In words: GloSensor assay, HEK-293 cells transiently expressing mNpr1 and pGS-40F. The class given is cell-based. As to conditions: no agonist. The procedure:
HEK-293 cells (American Type Culture Collection “ATTC,” Manassas, Va.) were cultured in DMEM/F12 supplemented with 2 mM L-glutamine, 10% FBS, 100 U/ml penicillin, and 100 μg/ml streptomycin. For transient expression, 8×10^5 cells were seeded in 6-wells, cultured for 24 hours, and then transfected using TransIT®-293 (Mirus, Madison, Wis.) according to the manufacturer's instructions. After transfection (48 hours), cells were used to measure intracellular cGMP production. HEK-293 cell clones stably expressing pGloSensor™-40F alone (HEK-cGMP-sensor cells) or in addition, human Npr1 (“hNpr1”) (HEK-hNpr1-cGMP-sensor cells) or human Npr2 (HEK-hNpr2-cGMP-sensor cells) were generated by co-transfection with pEAK8-GFP and selection with 1 μg/ml puromycin. Stable expression of transgenes was verified by measuring ligand-induced cGMP production with the cGMP biosensor.
(§1) Before the measurement (24 hours in advance), 3×10^4 cells were seeded into white 96-well plates (PerkinElmer, Waltham, Mass.), coated with 0.1% poly(D-lysine), and assays conducted as recommended by the manufacturer (Promega). Medium was aspirated and cells were loaded for two hours at room temperature with 2% GoSensor™ reagent diluted in CO2-independent media (ThermoFisher) supplemented with 2 mM L-glutamine and 10% FBS (assay medium). Luminescence was measured on a BioTek Synergy™ NEO (Winooski, Vt.) plate reader at room temperature. After a baseline measurement of 3-5 minutes, assay medium as a control or assay medium with agonist was manually added, and luminescence was measured for 30 minutes at ˜ 1/60 Hz. For compounds tested for Npr1 and Npr2 inhibition, the compounds were added after baseline measurements, and luminescence was read for 5 minutes before addition of agonist. Luminescence was then normalized to baseline measurements and plotted against the time. Ligand-induced changes of cGMP production were quantified by determining the area under the curve. To determine efficacy and potency of agonists, ligand-induced changes were normalized to medium only addition and plotted against the ligand concentration. […] To quantify […] of compounds, compound-induced changes of agonist-induced cGMP production were normalized to vehicle controls, plotted against compound concentration, and fit with a four-parameter logistic regression. Effects of A-71915 on basal mNpr1 activity were fitted with a bell-shaped regression (equation indicated below).
Because the Npr1 receptor is a ligand-dependent guanylate cyclase, measuring agonist-induced changes in intracellular cGMP levels was used to examine inhibition of Npr1. To measure the production of cGMP by Npr1, a circular permutated Firefly luciferase molecule which was functionally linked to the cGMP binding domain of human PDE5 (GloSensor™ technology pGS-40F) was used, as described in Example 1. This reporter molecule together with a luciferase substrate (GoSensor™ reagent) and a sensitive method for detection of luciferase activity (emitted light) permitted real-time measurement of cGMP levels in live cells (FIG. 1A). The cGMP sensor was expressed in HEK293 cells and luciferase activity after stimulation with the NO-donor sodium nitroprusside (SNP), which activates ubiquitously expressed soluble guanylate cyclases, was examined. […] Next, mNpr1 and the cGMP sensor were transiently expressed in HEK293 cells and agonist dependent receptor activation was examined. […] Next, the effects of A-71915 on mNpr1 were tested.
For Table 6, HEK-293 cells transiently expressing mNpr1 and pGS-40F were stimulated with 1 nM mNppb 5 minutes after addition of candidate compounds or A-71915 and luminescence was measured for 30 minutes. Inhibitors were titrated to calculate apparent IC50 values, as described in methods.

A further assay has as its target T2, hNpr1 (Homo sapiens, UniProt P16066).
T2 sequence (P16066 33-1061): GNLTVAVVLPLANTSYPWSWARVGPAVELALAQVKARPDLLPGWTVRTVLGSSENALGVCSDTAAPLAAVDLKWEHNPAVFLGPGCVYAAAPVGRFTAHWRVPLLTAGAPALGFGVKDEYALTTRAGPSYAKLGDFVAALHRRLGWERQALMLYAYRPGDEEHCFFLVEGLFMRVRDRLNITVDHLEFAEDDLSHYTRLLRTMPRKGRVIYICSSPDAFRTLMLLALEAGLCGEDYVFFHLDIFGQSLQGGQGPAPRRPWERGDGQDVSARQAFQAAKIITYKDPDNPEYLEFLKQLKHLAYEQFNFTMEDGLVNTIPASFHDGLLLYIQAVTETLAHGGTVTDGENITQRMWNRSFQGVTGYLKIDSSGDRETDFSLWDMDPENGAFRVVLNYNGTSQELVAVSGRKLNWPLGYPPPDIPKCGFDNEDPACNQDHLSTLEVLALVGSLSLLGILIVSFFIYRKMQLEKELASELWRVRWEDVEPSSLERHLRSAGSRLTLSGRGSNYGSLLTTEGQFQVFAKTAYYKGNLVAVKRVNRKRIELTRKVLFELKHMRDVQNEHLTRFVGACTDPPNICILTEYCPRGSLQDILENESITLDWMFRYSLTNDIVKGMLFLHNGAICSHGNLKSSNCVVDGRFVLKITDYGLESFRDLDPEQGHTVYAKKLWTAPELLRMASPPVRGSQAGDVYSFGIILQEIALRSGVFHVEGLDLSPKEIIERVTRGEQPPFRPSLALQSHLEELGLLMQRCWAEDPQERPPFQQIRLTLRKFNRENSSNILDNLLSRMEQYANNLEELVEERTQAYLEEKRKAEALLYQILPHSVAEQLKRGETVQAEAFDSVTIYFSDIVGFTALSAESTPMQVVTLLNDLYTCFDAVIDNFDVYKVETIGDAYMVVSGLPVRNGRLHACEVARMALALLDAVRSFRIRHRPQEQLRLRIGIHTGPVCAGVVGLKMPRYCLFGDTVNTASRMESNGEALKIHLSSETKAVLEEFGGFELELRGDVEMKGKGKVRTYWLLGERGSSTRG
The experiment in a line: GloSensor assay in 96-well format, HEK-hNpr1-cGMP-sensor cells. The class given is cell-based. As to conditions: 5 μM antagonist, increasing hNppa; GloSensor and membrane cyclase assays (FIGS. 5B-C). The procedure:
as §1
Additional screens of the fifteen candidates corroborated hNpr1 inhibition. In particular, HEK-hNpr1-cGMP-sensor cells were seeded in 96-wells and stimulated with 60 pM hNppa 5 minutes after addition of candidate compounds or A-71915 and luminescence was measured for 30 minutes. Inhibitors were titrated to calculate apparent potency (IC50) and efficacy (Imax) of inhibition of hNppa-induced cGMP production.

For the next assay, the system named is mice. As to conditions: reported; cited from earlier work.

“Also recorded” adds a separate entry of the source. Where a SMILES comes first, the peptide text is derived from it. Bridges are numbered along the chain shown (N, C = ends). [ ]: non-standard residue; d: D form. dTic = O=C(O)[C@H]1Cc2ccccc2CN1; Cha = N[C@@H](CC1CCCCC1)C(=O)O

For `CC[C@H](C)[C@@H]1NC(=O)[C@H](CCCNC(=N)N)NC(=O)CNC(=O)CNC(=O)[C@H](CC2CCCCC2)NC(=O)[C@@H](NC(=O)[C@@H](N)CCCNC(=N)N)CSSC[C@@H](C(N)=O)NC(=O)[C@H](CCCNC(=N)N)NC(=O)[C@H]2Cc3ccccc3CN2C(=O)[C@H]([C@@H](C)CC)NC(=O)[C@H](CCCNC(=N)N)NC(=O)[C@H](CC(=O)O)NC1=O` [Compound A-71915, reference compound] (H-RC[Cha]GGRIDRI[dTic]RC-NH2; disulfide 2-13; N-terminus and C-terminus assumed), at mNpr1, the “Effect on basal mNpr1 activity in the absence of natriuretic peptides” value is recorded as “partial agonist; also recorded: directly stimulates basal mNpr1 activity”. Moreover, the “Effect on hNppa concentration-response at fixed antagonist concentration” value on hNpr1 is on record as “right-shift in hNppA potency without any effect on maximal efficacy”. In addition, the “Block of acute itch responses elicited by intradermal pruritogens” value in the assay on mice was “does not block acute itch responses”.

In the case of “1-cyclohexyl-3-(cyclopropylmethyl)-N-((3-methylisoxazol-5-yl)methyl)-2-oxo-2,3-dihydro-1H-benzo[d]imidazole-5-carboxamide [JS-11]”, the “Effect on hNppa concentration-response at fixed antagonist concentration” value on hNpr1 is “reduced maximal responses even at extremely high hNppa concentrations”.

Values taken from US11324725B2, “Compositions and methods for the inhibition of pruritus” (The United States of America, as represented by the …, priority 2017, dated 2022).
